Values joined by “and” are separate entries in the source; they are usually repeats but may differ in a detail not shown here. Equal entries are not always repeated. “Also recorded” adds a separate entry of the source.
Experiments:
iNOS = assay: Expression of iNOS in macrophages induced by LPS (Embodiment 8); format: cell-based, Mouse; conditions: 10 μmol/L, LPS 0.1 μg/mL, 24 h, ELISA, FIG. 6
Protocol: 1. Cell line: Macrophage RAW264.7.
2. Reagents: LPS (Sigma); iNOS detection kit (Stressgen); MTT (Biotopped).
The level of iNOS protein in macrophages was determined by ELISA using an anti-human iNOS polyclonal antibody (Stressgen). The number of macrophages was determined by using an automatic flow cytometer.

[1] = Removing peroxynitrite, SIN-1 as donor (Embodiment 9); format: biochemical; conditions: SIN-1 1 μmol/L, 1, 10, 100 μmol/L, 302 nm, FIG. 7
Protocol: 3-morpholino-sydnonimine (SIN-1) as a peroxynitrite donor was added to 15 test tubes at a concentration of 1 μmol/L. 5-methyltetrahydrofolate calcium was added to test tubes containing the SIN-1 solution to the final concentrations of 1 μmol/L, 10 μmol/L, and 100 μmol/L respectively; dehydroascorbic acid was added to test tubes containing the SIN-1 solution to the final concentrations of 1 μmol/L, 10 μmol/L, and 100 μmol/L respectively; glutathione was added to test tubes containing the SIN-1 solution to the final concentrations of 1 μmol/L, 10 μmol/L, and 100 μmol/L respectively; NMN was added to test tubes containing the SIN-1 solution to the final concentrations of 1 μmol/L, 10 μmol/L, and 100 μmol/L respectively; and tetrahydrobiopterin was added to test tubes containing the SIN-1 solution to the final concentrations of 1 μmol/L, 10 μmol/L, and 100 μmol/L respectively. The concentration of peroxynitrite was determined by spectrophotometry at a detection wavelength of 302 nm.

influenza = format: in vivo, human
Macrophage RAW264.7 [2] = assay: NO secretion of macrophage RAW264.7 (Embodiment 12); format: cell-based, Mouse; conditions: for Lysate NO secretion amount / Supernatant NO secretion amount: Folate 15.625 μM, LPS group 1 μg/mL, mean, n = 6
Protocol: • 1. Cell line: Macrophage RAW264.7. • 2. […] II. Experimental scheme
An absorbance value at 520 nm was expressed as mean±standard deviation. NO secretion rate=(OD sample well-OD blank well)/(OD normal well-OD blank well)×100%, and the NO secretion amount was calculated according to a standard curve.

Macrophage RAW264.7 [3] = conditions: 15.625, 62.5, 250 μmol/L; FIGS. 10-12
[4] = tested on: Mycoplasma pneumoniae (ATCCFH15531); assay: In vivo anti-mycoplasma pneumonia experiment (Embodiment 21); conditions: azithromycin 40 mg/kg; composition C 40 and 80 mg/kg; 10 days
[5] = randomized controlled trial / meta analyses from the literature; cited from earlier work
Pseudomonas aeruginosa = assay: Gram-negative bacteria in vivo (Embodiment 18); parameters: species or system BAL B/C male mice; conditions: penicillin 450 mg/kg by gavage 30 min and 24 h after infection
Protocol: […] BAL B/C male mice weighing 18-22 g were divided into 6 groups with 8 mice in each group. […] After a bacterial solution of Pseudomonas aeruginosa was cultured by streaking on an LB solid medium, a typical colony was picked and inoculated into an ordinary LB liquid medium. After overnight shaking culture at 37° C. for about 12 h, the culture was centrifuged at 4000 r/min for 3 min, the supernatant was discarded, and the bacteria were resuspended in normal saline for later use. The BAL B/C male mice in each experimental group and three control groups were intraperitoneally injected with a fatal dose of Pseudomonas aeruginosa solution at a dose of 500 μL/mouse. 30 min after the BAL B/C male mice in the experimental groups were infected with the bacteria, the medium-dose composition group and the high-dose composition group were administered with drugs by gavage, the penicillin group and the meropenem group were also administered with drugs by gavage, and the normal group was administered with purified water by gavage. 24 h after administration, the BAL B/C male mice in each experimental group and control group were administered for the second time, and the drug type and dosage were the same as the administration for the first time. The BAL B/C male mice were observed every 24 h after administration, and their survival was recorded. All animals were sacrificed on the day 15.

[6] = listed as 5-methyltetrahydrofolic acid
[7] = Folate capsules 400 mg/capsule, per patient, row Mean = mean

Compound: 6S-5-methyltetrahydrofolate calcium
- effect on expression of iNOS in macrophages induced by LPS (iNOS; [6]): did not affect; also recorded: almost no effect
- peroxynitrite scavenging [1, 6]: excellent peroxynitrite scavenging effects; also recorded: higher ability to scavenge peroxynitrite
- Basic rehabilitation (symptoms other than tonsillitis and sore throat disappeared) (influenza; [7]): 33 hours (2×) and 35 hours and 13 hours and 12 hours (2×) and 17 hours (2×) and 32 hours (3×) and 8 hours and 43 hours and 18 hours and 34 hours and 15 hours and 11 hours and 56 hours and 24 hours and 10 hours and 46 hours and 58 hours and 53 hours and 14 hours
- Complete rehabilitation (all symptoms disappeared) (influenza; [7]): 33 hours (2×) and 35 hours and 13 hours (3×) and 12 hours and 17 hours (2×) and 32 hours (2×) and 8 hours and 43 hours and 36 hours (2×) and 48 hours and 56 hours and 46 hours (3×) and 44 hours and 58 hours (2×) and 14 hours
- disappearance time of symptoms: Cough (influenza; [7]): 33 hours (2×) and 17 hours and 29 hours and 46 hours (2×) and 44 hours and 13 hours and 58 hours
- disappearance time of symptoms: Dizziness and fullness in head (influenza; [7]): 48 h and 9 h
- disappearance time of symptoms: Dry and itchy throat (influenza; [7]): 15 h
- disappearance time of symptoms: Fatigue (influenza; [7]): 35 hours and 8 hours (3×) and 12 hours (3×) and 15 hours and 10 hours (4×) and 33 hours
- disappearance time of symptoms: Headache (influenza; [7]): 13 hours and 12 hours (4×) and 32 hours (2×) and 8 hours (3×) and 9 hours and 10 hours (2×) and 14 hours
- disappearance time of symptoms: Inappetence (influenza; [7]): 13 h
- disappearance time of symptoms: Intolerance of cold and cold limbs (influenza; [7]): 10 h
- disappearance time of symptoms: Low fever (influenza; [7]): 10 h
- disappearance time of symptoms: Muscular soreness (influenza; [7]): 16 hours and 13 hours and 32 hours and 9 hours and 15 hours and 10 hours (2×) and 14 hours
- disappearance time of symptoms: Nasal stuffiness (influenza; [7]): 9 hours and 17 hours and 32 hours (2×) and 8 hours and 43 hours and 12 hours (3×) and 20 hours and 15 hours (2×) and 56 hours and 33 hours and 24 hours and 10 hours and 41 hours
- disappearance time of symptoms: Running nose (influenza; [7]): 11 hours (2×) and 13 hours and 32 hours and 8 hours and 9 hours and 20 hours and 15 hours and 12 hours (3×) and 33 hours (2×) and 46 hours and 53 hours and 17 hours and 14 hours
- disappearance time of symptoms: Sneezing (influenza; [7]): 32 hours (2×) and 9 hours (2×) and 18 hours and 34 hours and 15 hours and 12 hours (3×) and 8 hours and 33 hours and 10 hours and 17 hours
- disappearance time of symptoms: Sore throat (influenza; [7]): 33 hours (2×) and 12 hours (2×) and 32 hours (3×) and 29 hours and 36 hours (2×) and 46 hours and 10 hours and 54 hours and 58 hours and 14 hours
- time until the patients' influenza almost all healed (influenza; data in both Table 1 and Table 2): ≤ 2 days
- Lysate NO secretion amount (Macrophage RAW264.7 [2]; 1 μg/mL LPS induction): 1.725 µM
- Supernatant NO secretion amount (Macrophage RAW264.7 [2]; 1 μg/mL LPS induction): 36.814 µM
- effect on secretion/expression of NO in macrophages (Macrophage RAW264.7 [2]; 15.625 μmol/L, macrophages induced by LPS, listed as 5-methyltetrahydrofolic acid): did not inhibit; also recorded: hardly affects
- Lysate NO secretion amount (Macrophage RAW264.7 [2]; No induction): 3.863 µM
- Supernatant NO secretion amount (Macrophage RAW264.7 [2]; No induction): 1.714 µM
- effect on secretion of NO when no LPS stimulation is provided (Macrophage RAW264.7 [2]; low concentration, no LPS): promote the secretion of NO
- effect on expression of macrophages and inflammatory factors induced by LPS (Macrophage RAW264.7 [3]): no significant effect

Compound: NC(=O)c1ccc[n+]([C@@H]2O[C@H](COP(=O)([O-])O)[C@@H](O)[C@H]2O)c1 [NMN, nicotinamide mononucleotide]
- effect on expression of iNOS in macrophages induced by LPS (iNOS): did not affect; also recorded: almost no effect
- peroxynitrite scavenging [1]: excellent peroxynitrite scavenging effects; also recorded: higher ability to scavenge peroxynitrite

Compound: CC[C@H]1OC(=O)[C@H](C)[C@@H](O[C@H]2C[C@@](C)(OC)[C@@H](O)[C@H](C)O2)[C@H](C)[C@@H](O[C@@H]2O[C@H](C)C[C@H](N(C)C)[C@H]2O)[C@](C)(O)C[C@@H](C)CN(C)[C@H](C)[C@@H](O)[C@]1(C)O [azithromycin]
- histopathological examination of the lung tissue [4]: Mild interstitial pneumonia

Compound: O=C1O[C@H]([C@@H](O)CO)C(=O)C1=O [dehydroascorbic acid]
- effect on expression of iNOS in macrophages induced by LPS (iNOS): almost no effect
- peroxynitrite scavenging [1]: excellent peroxynitrite scavenging effects; also recorded: higher ability to scavenge peroxynitrite

Compound: N[C@@H](CCC(=O)N[C@@H](CS)C(=O)NCC(=O)O)C(=O)O [glutathione, reference compound]
- effect on expression of iNOS in macrophages induced by LPS (iNOS): did not affect; also recorded: almost no effect

Compound: C[C@]12CCC(=O)C=C1CC[C@@H]1[C@@H]2[C@@H](O)C[C@@]2(C)[C@H]1CC[C@]2(O)C(=O)CO [hydrocortisone]
- mortality of patients with sepsis [5]: could not reduce

Compound: O=C1O[C@H]([C@@H](O)CO)C(O)=C1O [vitamin C]
- mortality of patients with sepsis [5]: cannot improve

Compound: lipopolysaccharide [LPS, reference compound]
- Lysate NO secretion amount (Macrophage RAW264.7 [2]; 1 μg/mL LPS induction): 1.6 µM
- Supernatant NO secretion amount (Macrophage RAW264.7 [2]; 1 μg/mL LPS induction): 37.343 µM
- Lysate NO secretion amount (Macrophage RAW264.7 [2]; No induction): 1.95 µM
- Supernatant NO secretion amount (Macrophage RAW264.7 [2]; No induction): 42.714 µM

Compound: penicillin
- outcome of mice infected with the fatal dose of Pseudomonas aeruginosa (Pseudomonas aeruginosa): all the mice in the penicillin group died

Reference: US20250249026A1 (priority 2019, published 2025)
